Measurements as given in patent publication US6706663B2, “Herbicidal 3-heterocyclic substituted benzisothiazole and benzisoxazole compounds” (Wyeth, priority 2000, dated 2004).

Columns and labels:
ORYSAT (Rice, Tebonnet) [1] = assay: Postemergence herbicidal evaluation; type: in vivo, Oryza sativa, (L.) Tebonnet
How it was run: (§1)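 Seedlings grown for about two weeks were sprayed postemergence and then kept under standard greenhouse care. Injury was rated visually 4–5 weeks after treatment on a 0–9 scale against untreated controls, and ratings from repeat tests were averaged.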

[2] = system: IPOHE (Ipomoea hederacea); assay: Preemergence herbicidal evaluation; type: in vivo, (L.) Jacq.; details: rated 4-5 weeks after treatment
[3] = system: ECHCG (Echinochloa crus-galli); assay: Postemergence herbicidal evaluation; type: in vivo, (L.) Beau
How it was run: as §1

[4] = system: ABUTH (Abutilon theophrasti); assay: Preemergence herbicidal evaluation; type: in vivo, Medic.; details: rated 4-5 weeks after treatment
GALAP (Galium aparine) [5] = assay: Postemergence herbicidal evaluation; type: in vivo
How it was run: as §1

ORYSAT (Rice, Tebonnet) [6] = assay: Flooded paddy, post-transplant rice tolerance; type: in vivo, Oryza sativa, (L.) Tebonnet; details: flooded paddy, post-transplant rice, rated 3-4 weeks after treatment, 0-9 rating scale
How it was run: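 Two ten-day-old Tebonnet rice seedlings transplanted into silt loam, then flooded with water held at 1.5–3 cm above soil; herbicide applied post-transplant. Plants kept in greenhouse and rated visually 0–9 versus untreated control for stand, vigor, malformation, size and chlorosis.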

[7] = system: ABUTH (Abutilon theophrasti); assay: Postemergence herbicidal evaluation; type: in vivo, Medic.
How it was run: as §1

ORYSAT (Rice, Tebonnet) [8] = assay: Preemergence herbicidal evaluation; type: in vivo, Oryza sativa, (L.) Tebonnet; details: rated 4-5 weeks after treatment
[9] = system: CYPSE (Cyperus serotinus); assay: Flooded paddy, preemergence weed control; type: in vivo, Rottb.; details: rated 3-4 weeks after treatment, 0-9 rating scale
How it was run: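 Seeds or propagules were planted 0.5 cm deep in silt loam and flooded to 1.5–3 cm. Compounds in 50/50 v/v aqueous/acetone were pipetted into the flood water at about 0.0080 to 0.1250 kg/ha. After 3–4 weeks in the greenhouse, effect was rated visually on a 0–9 scale versus untreated control.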

[10] = system: AMBEL (Ambrosia artemisifolia); assay: Postemergence herbicidal evaluation; type: in vivo, L.
How it was run: as §1

[11] = system: CASOB (Cassia obtusifolia); assay: Postemergence herbicidal evaluation; type: in vivo, L.
How it was run: as §1

[12] = system: CHEAL (Chenopodium album); assay: Postemergence herbicidal evaluation; type: in vivo, L.
How it was run: as §1

[13] = system: SAGPY (Sagittaria pygmaea); assay: Flooded paddy, preemergence weed control; type: in vivo, L.; details: rated 3-4 weeks after treatment, 0-9 rating scale
How it was run: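 In this preemergence paddy assay, weed seeds or organs are sown at up to 0.5 cm in silt loam and covered by 1.5–3 cm of water for the full test period. After treatment the pots are kept in a greenhouse, and herbicidal effect is rated 0-9 visually against a control.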

GALAP (Galium aparine) [14] = assay: Preemergence herbicidal evaluation; type: in vivo; details: rated 4-5 weeks after treatment
How it was run: (§2)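 Greenhouse preemergence test: freshly planted cups were sprayed once with an aqueous acetone solution of compound. Injury was judged visually on a 0–9 scale relative to a control, four to five weeks later.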

[15] = system: GLXMAW (Soybean, Williams); assay: Postemergence herbicidal evaluation; type: in vivo, Glycine max, (L.) Merr. cv Williams
How it was run: as §1

[16] = system: AMBEL (Ambrosia artemisifolia); assay: Preemergence herbicidal evaluation; type: in vivo, L.; details: rated 4-5 weeks after treatment
How it was run: as §2

[17] = system: CASOB (Cassia obtusifolia); assay: Preemergence herbicidal evaluation; type: in vivo, L.; details: rated 4-5 weeks after treatment
How it was run: as §2

[18] = system: CHEAL (Chenopodium album); assay: Preemergence herbicidal evaluation; type: in vivo, L.; details: rated 4-5 weeks after treatment
How it was run: as §2

[19] = system: TRZAWR (Wheat, Winter, cv Riband); assay: Preemergence herbicidal evaluation; type: in vivo, Triticum aestivum; details: rated 4-5 weeks after treatment
How it was run: as §2

ZEAMX (Corn, Field) = assay: Postemergence herbicidal evaluation; type: in vivo, Zea mays, L.
How it was run: as §1

SMILES: Cn1c(C(F)(F)F)cc(=O)n(-c2ccc3snc(C4OCCO4)c3c2)c1=O [Compound 45, 3-[3-(1,3-dioxolan-2-yl)-1,2-benzisothiazol-5-yl]-1-methyl-6-(trifluoromethyl)uracil]
- Postemergence herbicidal rating, ORYSAT (ORYSAT (Rice, Tebonnet) [1]; rate 0.0320 kg/ha): 4.3
- Postemergence herbicidal rating, ORYSAT (ORYSAT (Rice, Tebonnet) [1]; rate 0.0620 kg/ha): 5.2
- Preemergence herbicidal rating IPOHE ([2]; Rate 0.0620 kg/ha): 9.0
- Preemergence herbicidal rating IPOHE ([2]; Rate 0.1250 kg/ha): 9.0
- Preemergence herbicidal rating IPOHE ([2]; Rate 0.2500 kg/ha): 9.0
- Postemergence herbicidal rating, ECHCG ([3]; rate 0.0320 kg/ha): 2.8
- Postemergence herbicidal rating, ECHCG ([3]; rate 0.0620 kg/ha): 4.0
- Preemergence herbicidal rating ABUTH ([4]; Rate 0.0620 kg/ha): 9.0
- Preemergence herbicidal rating ABUTH ([4]; Rate 0.1250 kg/ha): 9.0
- Preemergence herbicidal rating ABUTH ([4]; Rate 0.2500 kg/ha): 9.0
- Postemergence herbicidal rating, GALAP (GALAP (Galium aparine) [5]; rate 0.0320 kg/ha): 8.5
- Postemergence herbicidal rating, GALAP (GALAP (Galium aparine) [5]; rate 0.0620 kg/ha): 9.0
- herbicidal rating, ORYSAT (rice tolerance) (ORYSAT (Rice, Tebonnet) [6]; rate 0.0080 kg/ha): 8.5
- herbicidal rating, ORYSAT (rice tolerance) (ORYSAT (Rice, Tebonnet) [6]; rate 0.0320 kg/ha): 9.0
- herbicidal rating, ORYSAT (rice tolerance) (ORYSAT (Rice, Tebonnet) [6]; rate 0.1250 kg/ha): 9.0
- Postemergence herbicidal rating, ABUTH ([7]; rate 0.0320 kg/ha): 9.0
- Postemergence herbicidal rating, ABUTH ([7]; rate 0.0620 kg/ha): 9.0
- Preemergence herbicidal rating ORYSAT (ORYSAT (Rice, Tebonnet) [8]; Rate 0.0620 kg/ha): 8.7
- Preemergence herbicidal rating ORYSAT (ORYSAT (Rice, Tebonnet) [8]; Rate 0.1250 kg/ha): 9.0
- Preemergence herbicidal rating ORYSAT (ORYSAT (Rice, Tebonnet) [8]; Rate 0.2500 kg/ha): 9.0
- herbicidal rating, CYPSE ([9]; rate 0.0080 kg/ha): 9.0
- herbicidal rating, CYPSE ([9]; rate 0.0320 kg/ha): 9.0
- herbicidal rating, CYPSE ([9]; rate 0.1250 kg/ha): 9.0
- Postemergence herbicidal rating, AMBEL ([10]; rate 0.0320 kg/ha): 9.0
- Postemergence herbicidal rating, AMBEL ([10]; rate 0.0620 kg/ha): 9.0
- Postemergence herbicidal rating, CASOB ([11]; rate 0.0320 kg/ha): 5.0
- Postemergence herbicidal rating, CASOB ([11]; rate 0.0620 kg/ha): 9.0
- Postemergence herbicidal rating, CHEAL ([12]; rate 0.0320 kg/ha): 8.5
- Postemergence herbicidal rating, CHEAL ([12]; rate 0.0620 kg/ha): 9.0
- herbicidal rating, SAGPY ([13]; rate 0.0080 kg/ha): 7.0
- herbicidal rating, SAGPY ([13]; rate 0.0320 kg/ha): 8.0
- herbicidal rating, SAGPY ([13]; rate 0.1250 kg/ha): 9.0
- Preemergence herbicidal rating GALAP (GALAP (Galium aparine) [14]; Rate 0.0620 kg/ha): 7.0
- Preemergence herbicidal rating GALAP (GALAP (Galium aparine) [14]; Rate 0.1250 kg/ha): 9.0
- Preemergence herbicidal rating GALAP (GALAP (Galium aparine) [14]; Rate 0.2500 kg/ha): 9.0
- Postemergence herbicidal rating, GLXMAW ([15]; rate 0.0320 kg/ha): 8.8
- Postemergence herbicidal rating, GLXMAW ([15]; rate 0.0620 kg/ha): 8.8
- Preemergence herbicidal rating AMBEL ([16]; Rate 0.0620 kg/ha): 9.0
- Preemergence herbicidal rating AMBEL ([16]; Rate 0.1250 kg/ha): 9.0
- Preemergence herbicidal rating AMBEL ([16]; Rate 0.2500 kg/ha): 9.0
- Preemergence herbicidal rating CASOB ([17]; Rate 0.0620 kg/ha): 8.7
- Preemergence herbicidal rating CASOB ([17]; Rate 0.1250 kg/ha): 9.0
- Preemergence herbicidal rating CASOB ([17]; Rate 0.2500 kg/ha): 9.0
- Preemergence herbicidal rating CHEAL ([18]; Rate 0.0620 kg/ha): 9.0
- Preemergence herbicidal rating CHEAL ([18]; Rate 0.1250 kg/ha): 9.0
- Preemergence herbicidal rating CHEAL ([18]; Rate 0.2500 kg/ha): 9.0
- Preemergence herbicidal rating TRZAWR ([19]; Rate 0.0620 kg/ha): 9.0
- Preemergence herbicidal rating TRZAWR ([19]; Rate 0.1250 kg/ha): 9.0
- Preemergence herbicidal rating TRZAWR ([19]; Rate 0.2500 kg/ha): 9.0
- Postemergence herbicidal rating, ZEAMX (ZEAMX (Corn, Field); rate 0.0320 kg/ha): 5.5
- Postemergence herbicidal rating, ZEAMX (ZEAMX (Corn, Field); rate 0.0620 kg/ha): 6.0
